Data: patent publication US20060003016A1, “Therapeutic method for endolymphatic hydrops associated diseases” (priority 2004, published 2006)
Where two headings read alike, the source gives them in different places.

Assays:
[1] = test system: patients with Meniere's disease and endolymphatic hydrops associated diseases; assay: Clinical course of vertigo, aural fullness, tinnitus and hearing in clinical cases; type: in vivo, patient
Source text: Therapeutic method of our invention is always performed after general examinations and standard laboratory examinations, such as blood pressure, plasma electrolytes, and urine osmolality. After consideration of body weight, age, sex, and life style, we directed the patients to take adequate water (see below) every day in combination with short-term application with isosorbite®. During the initial stage of the water intake method, recommended volume of water intake for adult male, weighing 60 kg, is calculated as 1.8-2.1 l per day according to the following formula (F 1). […] They seem to be nervous and live under the very strong psychological pressure.
The present invention is explained in detail by mentioning clinical cases.

[2] = test system: patients with Meniere's disease and endolymphatic hydrops associated diseases; settings: for hearing level: case 4, right ear
Source text: In the present case who could be followed up for more than 24 months after treatment with water intake, the therapeutic effect was judged by using the criteria of AAO-HNS (1995)^14), 15). Proviso that in an examination on changes of the hearing, although the criteria in the four-frequency pure-tone averages (PTA) of AAO-HNS (1995)^14) adopted mean values of the hearing levels consisting of 500 Hz, 1000 Hz, 2000 Hz and 3000 Hz, in our case, the value of 4000 Hz was used in stead of that of 3000 Hz.
In each figure, a horizontal axis indicates frequency (Hz) and a vertical axis indicates hearing level. […] A graph in the upper position indicates better hearing level.

[3] = case 1, water intake 2 lit./day continued, up to March 2004

Q: With `O` [water intake, water] as the compound, how does the right hearing [1, 3] read?
A: within normal range

Q: And the rotatory vertigo [1, 3]?
A: no rotatory vertigo was noted

Q: And the rotatory vertigo ([1]; case 2, water intake 1.5 lit./day from Feb. 21, 2003 in addition to isosorbide 21 g/dose and difenidol hydrochloride 25 mg/dose on demand)?
A: remitted after May 3, 2003

Q: And the “resound or aural fullness (in the right ear)” value ([1]; case 2, water intake 1.5 lit./day in addition to isosorbide and difenidol hydrochloride on demand)?
A: remitted after Aug. 18, 2003

Q: And the hearing level ([1]; case 2, water intake 1.5 lit./day in addition to isosorbide and difenidol hydrochloride on demand, to February 2004)?
A: maintained within normal range

Q: And the hearing ([1]; case 3, water intake, up to January 2004)?
A: maintained within normal range

Q: And the rotatory vertigo ([1]; case 3, water intake, up to January 2004, except one attack Mar. 16, 2001)?
A: no rotatory vertigo was recognized

Q: What about the “hearing of the right low tone” value ([1]; case 4, water intake 1.5 lit./day, October 2003 to January 2004) of the same compound?
A: maintained improved state

Q: What about the rotatory vertigo ([1]; case 5, water intake 1.5 lit./day) of the same compound?
A: could not be recognized after Oct. 24, 2002

Q: What about the “high frequency sensorineural hearing loss of the left ear” value ([1]; case 5, water intake 1.5 lit./day plus isosorbide 63 g t.d.s. and adenosine triphosphate 300 mg t.d.s for 2 weeks) of the same compound?
A: improved in Oct. 24, 2002

Q: And the “low frequency sensorineural hearing loss of the left ear” value ([1]; case 5, water intake 1.5 lit./day plus isosorbide and adenosine triphosphate for 2 weeks)?
A: improved from Nov. 29, 2002

Q: What about the “left hearing compared with right hearing” value ([1]; case 5, water intake 1.5 lit./day, from Jul. 18, 2003) of the same compound?
A: became equal level to the right hearing

Q: What about the left ear tinnitus ([1]; case 5, water intake 1.5 lit./day, to January 2004) of the same compound?
A: gradually remitted

Q: And the “rotatory vertiginous attack accompanied by tinnitus” value ([1]; case 6, water intake with isosorbide and difenidol hydrochloride on demand, after Dec. 21, 2001 until February 2004)?
A: no rotary vertiginous attack

Q: What about the “low frequency sensorineural hearing loss of the left ear” value ([1]; case 7, water intake 300 ml before going to sleep in addition to steroid, VB12 and PGE1) of the same compound?
A: improved

Q: And the left hearing ([1]; case 7, water intake continued (1.5 lit./day after September 2002), until now)?
A: maintained the improved state

Q: And the “right hearing level lower as compared with the left hearing level in all frequency range” value ([1]; case 8, water intake, at present, 2 -25 dB at initial examination)?
A: 5 -15 dB

Q: What about the rotatory vertigo ([1]; case 8, water intake, during the progress after the initial examination) of the same compound?
A: No rotatory vertigo could be recognized

Q: And the “outcome of most of patients with Meniere's disease” value ([1]; water intake method in combination with short-term isosorbide)?
A: improved without re-attack for 1-2 years

Q: And the “hearing level after treatment” value ([2]; case 1, right ear, 125 Hz, Aug. 29, 2003, water intake 2 lit./day, before 45 dB)?
A: 0 dB

Q: What about the “hearing level after treatment” value ([2]; case 1, right ear, 250 Hz, Aug. 29, 2003, water intake 2 lit./day, before 45 dB) of the same compound?
A: 5 dB

Q: And the “hearing level after treatment” value ([2]; case 1, right ear, 500 Hz, Aug. 29, 2003, water intake 2 lit./day, before 45 dB)?
A: 15 dB

Q: And the “hearing level after treatment” value ([2]; case 1, right ear, 1000 Hz, Aug. 29, 2003, water intake 2 lit./day, before 50 dB)?
A: 15 dB

Q: And the “hearing level after treatment” value ([2]; case 1, right ear, 2000 Hz, Aug. 29, 2003, water intake 2 lit./day, before 35 dB)?
A: 15 dB

Q: And the “hearing level after treatment” value ([2]; case 1, right ear, 4000 Hz, Aug. 29, 2003, water intake 2 lit./day, before 10 dB)?
A: 10 dB

Q: What about the “hearing level after treatment” value ([2]; case 1, right ear, 8000 Hz, Aug. 29, 2003, water intake 2 lit./day, before 15 dB) of the same compound?
A: 25 dB

Q: And the “hearing level after treatment, average (500-4000 Hz)” value ([2]; case 1, right ear, Aug. 29, 2003, water intake 2 lit./day, before 35 dB)?
A: 13.75 dB

Q: What about the “hearing level after treatment” value ([2]; case 3, left ear, 125 Hz, Jun. 7, 2002, poorest level 18-24 months after treatment, water intake, before 40 dB) of the same compound?
A: 25 dB

Q: And the “hearing level after treatment” value ([2]; case 3, left ear, 250 Hz, Jun. 7, 2002, poorest level 18-24 months after treatment, water intake, before 25 dB)?
A: 20 dB

Q: And the “hearing level after treatment” value ([2]; case 3, left ear, 500 Hz, Jun. 7, 2002, poorest level 18-24 months after treatment, water intake, before 25 dB)?
A: 15 dB

Q: And the “hearing level after treatment” value ([2]; case 3, left ear, 1000 Hz, Jun. 7, 2002, poorest level 18-24 months after treatment, water intake, before 15 dB)?
A: 5 dB

Q: And the “hearing level after treatment” value ([2]; case 3, left ear, 2000 Hz, Jun. 7, 2002, poorest level 18-24 months after treatment, water intake, before 10 dB)?
A: 5 dB

Q: And the “hearing level after treatment” value ([2]; case 3, left ear, 4000 Hz, Jun. 7, 2002, poorest level 18-24 months after treatment, water intake, before 45 dB)?
A: 5 dB

Q: And the “hearing level after treatment” value ([2]; case 3, left ear, 8000 Hz, Jun. 7, 2002, poorest level 18-24 months after treatment, water intake, before 80 dB)?
A: 15 dB

Q: What about the “hearing level after treatment, average (500-4000 Hz)” value ([2]; case 3, left ear, Jun. 7, 2002, poorest level 18-24 months after treatment, water intake, before 23.75 dB) of the same compound?
A: 7.5 dB

Q: And the “hearing improved as compared with before the treatment (four-frequency PTA)” value ([2]; case 3, left ear, water intake)?
A: 16.25 dB

Q: What about the “category of change of hearing, AAO-HNS (1995) criteria” value ([2]; case 3, water intake) of the same compound?
A: improved

Q: What about the hearing level ([2]; 125 Hz, Aug. 2003, water intake 1.5 lit./day) of the same compound?
A: 25 dB

Q: And the hearing level ([2]; 125 Hz, Dec. 2003, water intake 1.5 lit./day)?
A: 25 dB

Q: What about the hearing level ([2]; 125 Hz, Jan. 2004, water intake 1.5 lit./day) of the same compound?
A: 25 dB

Q: And the hearing level ([2]; 125 Hz, Jul. 2003, water intake 1.5 lit./day)?
A: 50 dB

Q: And the hearing level ([2]; 125 Hz, Jun. 2003, water intake 1.5 lit./day from Jun. 20, 2003)?
A: 30 dB

Q: And the hearing level ([2]; 125 Hz, Nov. 2003, water intake 1.5 lit./day)?
A: 25 dB

Q: What about the hearing level ([2]; 125 Hz, Oct. 2003, water intake 1.5 lit./day) of the same compound?
A: 30 dB

Q: What about the hearing level ([2]; 125 Hz, Sep. 2003, water intake 1.5 lit./day) of the same compound?
A: 30 dB

Q: And the hearing level ([2]; 250 Hz, Aug. 2003, water intake 1.5 lit./day)?
A: 25 dB

Q: And the hearing level ([2]; 250 Hz, Dec. 2003, water intake 1.5 lit./day)?
A: 25 dB

Q: What about the hearing level ([2]; 250 Hz, Jan. 2004, water intake 1.5 lit./day) of the same compound?
A: 25 dB

Q: And the hearing level ([2]; 250 Hz, Jul. 2003, water intake 1.5 lit./day)?
A: 45 dB

Q: What about the hearing level ([2]; 250 Hz, Jun. 2003, water intake 1.5 lit./day from Jun. 20, 2003) of the same compound?
A: 35 dB

Q: And the hearing level ([2]; 250 Hz, Nov. 2003, water intake 1.5 lit./day)?
A: 20 dB

Q: And the hearing level ([2]; 250 Hz, Oct. 2003, water intake 1.5 lit./day)?
A: 30 dB

Q: And the hearing level ([2]; 250 Hz, Sep. 2003, water intake 1.5 lit./day)?
A: 40 dB

Q: And the hearing level ([2]; 500 Hz, Aug. 2003, water intake 1.5 lit./day)?
A: 25 dB

Q: What about the hearing level ([2]; 500 Hz, Dec. 2003, water intake 1.5 lit./day) of the same compound?
A: 15 dB

Q: And the hearing level ([2]; 500 Hz, Jan. 2004, water intake 1.5 lit./day)?
A: 20 dB

Q: And the hearing level ([2]; 500 Hz, Jul. 2003, water intake 1.5 lit./day)?
A: 45 dB

Q: What about the hearing level ([2]; 500 Hz, Jun. 2003, water intake 1.5 lit./day from Jun. 20, 2003) of the same compound?
A: 40 dB

Q: And the hearing level ([2]; 500 Hz, Nov. 2003, water intake 1.5 lit./day)?
A: 20 dB

Q: And the hearing level ([2]; 500 Hz, Oct. 2003, water intake 1.5 lit./day)?
A: 25 dB

Q: What about the hearing level ([2]; 500 Hz, Sep. 2003, water intake 1.5 lit./day) of the same compound?
A: 40 dB

Q: And the hearing level ([2]; 1000 Hz, Aug. 2003, water intake 1.5 lit./day)?
A: 30 dB

Q: What about the hearing level ([2]; 1000 Hz, Dec. 2003, water intake 1.5 lit./day) of the same compound?
A: 25 dB

Q: What about the hearing level ([2]; 1000 Hz, Jan. 2004, water intake 1.5 lit./day) of the same compound?
A: 25 dB

Q: And the hearing level ([2]; 1000 Hz, Jul. 2003, water intake 1.5 lit./day)?
A: 50 dB
